The source of these data is patent US20200024223A1, “CRYSTALLINE SALTS OF (4S,4AS,5AR,12AS)-4-DIMETHYLAMINO-3,10,12,12A-TETRAHYDROXY-7-[(METHOXY(METHYL)AMINO)-METHYL]-1,11-DIOXO-1,4,4A,5,5A,6,11,12A-OCTAHYDRO-NAPHTHACENE-2-CARBOXYLIC ACID AMIDE AND METHODS OF USING THE SAME” (priority 2011, published 2020).

In brackets after ≈: the same amount, converted by molar mass. Where two headings read alike, the source gives them in different places. Some results are limits rather than exact numbers.

What is called ED50 is the midpoint of the dose-response relation. As a reminder, the MIC is the lowest concentration that inhibits growth of the organism. A high value points to a need for much substance. Usually MIC50 stands for the lowest concentration that inhibits either 50% of growth or 50% of the strains tested, depending on the study. For orientation: MIC90 means an inhibitory concentration at the 90% level, which refers to growth in some studies and to a panel of isolates in others.

Assay [1] deals with S. aureus RN450-1. Put plainly: S. aureus Thigh Wound Infection Model. It is filed as in vivo. Particulars: Staphylococcus aureus, RN4501, in Mus musculus, iv, read-out: S. aureus RN450-1 Thigh ED50. As to the method:
Bacterial cultures were prepared by growing S. aureus RN450-1 overnight and diluting with sterile PBS. An injection of 100 μL of ˜1×10^6 CFU/mL in sterile PBS was injected into the thigh. Four groups of mice for each drug received doses of 0.33, 1, 3, or 9 mg/kg intravenously at 2 and 6 hours post infection. An additional group of untreated mice served as a negative control group. At 24 hours post infection, the thighs were collected aseptically, homogenized, and plated to enumerate bacterial load per thigh. Data are reported as ED50 values.

Another assay deals with S. pyogenes. Put plainly: In vitro MIC testing, antibacterial spectrum of activity. It is filed as cell-based. As to conditions: Streptococcus pyogenes, S. pyogenes.
For assay [2], the system named is Streptococcus spp. [Group C]. The description is as above. The format is cell-based. Particulars: Streptococcus, Group C streptococci.
The test system of another assay is Salmonella spp. The assay is described as above. The format is cell-based.
The subject of the next assay is E. cloacae. The assay is described as above. It is filed as cell-based. Particulars: Enterobacter cloacae, 7 of 30 strains inhibited.
For assay [3], the system named is Carrageenan-Induced Rat Footpad Edema. Put plainly: Rat Carrageenan-Induced Footpad Edema inflammation model. It is filed as in vivo. Particulars: 3 hours post carrageenan. The method, then:
Immediately following the carrageenan injection and 3 hours post-injection, the hind paw volume was measured with a digital water plethysmometer. Results were calculated as a percent change in paw volume over the 3 hours, divided by the baseline paw volume, and then adjusted for the mean percent inflammation in the untreated controls, and are presented in Table 10.
Background: The carrageenan paw model is a standard test of acute inflammation.

For the next assay, the system named is S. pneumoniae PBS 1339. As to conditions: neutropenic CD-1 male mice, single IV dose 2 hours post infection, survival at 72 hours post infection.
In the next assay the test system is S. agalactiae. Put plainly: In vitro MIC testing, antibacterial spectrum of activity. Particulars: Streptococcus agalactiae, S. agalactiae. It is filed as cell-based.
Another assay deals with E. faecium. The description is as above. It is filed as cell-based. Particulars: Enterococcus faecium, vancomycin-susceptible E. faecium.
In the next assay the test system is E. coli. The description is as above. It is filed as cell-based.
The subject of assay [4] is S. aureus RN450-1. As to the kind of experiment: S. aureus Systemic Intraperitoneal Challenge (IPC) Model. The format is in vivo. As to conditions: CD-1 male mice, single SC dose 1 hour post infection, survival at 48 hours post infection. As to the method:
Bacterial cultures were prepared by growing tetracycline-sensitive S. aureus RN450-1 overnight, then diluting with sterile phosphate-buffered saline (PBS). For each experiment, a total of 30 mice were infected by injection into the intraperitoneal cavity with 500 μl of 7.5×10^7 CFU in 5% sterile bacteriological mucin. […] The doses were administered subcutaneously (SC) at 1 hour post infection. An additional infected group of 5 mice was included as a negative control (untreated) group. For all studies but one, a positive control group(s) was included (e.g., doxycycline, minocycline, or ciprofloxacin). Mice were monitored for survival for up to 7 days. […] PD50 (protective dose, 50%) is the dose required to achieve 50% survival. The PD50 values reported are a mean of 2-3 independent experiments for each drug tested.

A further assay relates to Staphylococcus aureus. As to the kind of experiment: Inhibition of macromolecular synthesis in Staphylococcus aureus (whole-cell assay). The format is cell-based. As to conditions: S. aureus, at 8-fold the MIC.
The next assay has as its system S. pneumoniae. Put plainly: In vitro MIC testing, antibacterial spectrum of activity. It is filed as cell-based, Streptococcus pneumoniae. As to conditions: Streptococcus pneumoniae, PSSP, all but 3 strains inhibited.
Assay [5] has as its system Streptococcus constellatus. Put plainly: In vitro MIC testing against anaerobic bacteria. The format is cell-based. As to conditions: ATCC27823.
In assay [6] the test system is Prevotella melaninogenica. As to the kind of experiment: In vitro MIC testing against anaerobic bacteria. It is filed as cell-based.
Setting [7] is: Escherichia coli, read-out: MIC50.
[8] abbreviates: Escherichia coli, read-out: MIC90.

In the case of `CON(C)Cc1ccc(O)c2c1C[C@H]1C[C@H]3[C@H](N(C)C)C(O)=C(C(N)=O)C(=O)[C@@]3(O)C(O)=C1C2=O` [The Active, (4S,4aS,5aR,12aS)-4-dimethylamino-3,10,12,12a-tetrahydroxy-7-[(methoxy(methyl)amino)-methyl]-1,11-dioxo-1,4,4a,5,5a,6,11,12a-octahydro-naphthacene-2-carboxylic acid amide], the ED50 in the assay with S. aureus RN450-1 [1] is 8.23 mg/kg. The MIC was no more than 0.25 µg/mL in the assay with S. pyogenes (all but 6 strains inhibited); no less than 4 µg/mL against S. pyogenes (elevated MICs for 5 strains); no more than 0.25 µg/mL in assay [2] (19 strains inhibited); 4 to 16 µg/mL (≈ 8.2 to 32.8 µM) in assay [2] (remainder of the isolates); no more than 1 µg/mL in the assay with E. cloacae; no more than 0.25 µg/mL in the assay with S. agalactiae (7 strains inhibited). In addition, the MIC was 16 to 32 µg/mL (≈ 32.8 to 65.6 µM) against S. agalactiae (remainder of the isolates), no more than 0.5 µg/mL in the assay on E. faecium (17 strains inhibited), 16 to 32 µg/mL (≈ 32.8 to 65.6 µM) in the assay with E. faecium (remainder of the isolates) and no more than 0.25 µg/mL against S. pneumoniae. Also, the MIC50 came out at 16 µg/mL (≈ 32.8 µM) in the assay on Salmonella spp.; 16 µg/mL (≈ 32.8 µM) in the assay on E. coli; 16 µg/mL (≈ 32.8 µM) in the assay on E. coli (Escherichia coli, E. coli (33 isolates), read-out: MIC50). In addition, the “Mean Percent Inflammation Compared to Untreated Controls” value is reported as 103% in [3] (1 mg/kg IP); 78% in assay [3] (5 mg/kg IP); 65% in assay [3] (10 mg/kg IP); 59% in assay [3] (25 mg/kg IP); 52% in assay [3] (50 mg/kg IP); 56% in assay [3] (75 mg/kg IP). For the same compound, the “Mean Percent Inflammation Compared to Untreated Controls” value came to 53% in assay [3] (100 mg/kg IP) and 26% in assay [3] (150 mg/kg IP). Besides, the “S. pneumoniae PBS1339 RTI PD50” value in the assay on S. pneumoniae PBS 1339 stood at 4.66 mg/kg. This compound also displayed an MIC90 in the assay with E. coli greater than 64 µg/mL. For the same compound, the “S. aureus RN450-1 IPC PD50” value in the assay on S. aureus RN450-1 [4] is 0.25 mg/kg. For the same compound, the “inhibition for the synthesis of cell wall, DNA, RNA and lipid components” value with Staphylococcus aureus is recorded as “less than 20%”.

`CN(C)c1ccc(O)c2c1C[C@H]1C[C@H]3[C@H](N(C)C)C(O)=C(C(N)=O)C(=O)[C@@]3(O)C(O)=C1C2=O` [Minocycline, minocycline]: the MIC90 against Salmonella spp. and in the assay with E. coli (setting [8]) was 8 µg/mL (≈ 17.5 µM) in each case. Also, the MIC (in assay [5]; in the assay on E. coli (Escherichia coli); in assay [6]) was 16 µg/mL (≈ 35 µM) in each case. For the same compound, the “Mean Percent Inflammation Compared to Untreated Controls” value in [3] (25 mg/kg IP) was 47%; in assay [3] (50 mg/kg IP), 33%; in [3] (75 mg/kg IP), 54%; in [3] (100 mg/kg IP) it was 21%. Also, in the assay on E. coli, the “MIC Range” value lay in the range of 8 to 16 µg/mL. Also, the MIC50 with E. coli (setting [7]) turned out to be 1 µg/mL (≈ 2.19 µM). Also, the “S. aureus RN450-1 IPC PD50” value in the assay with S. aureus RN450-1 [4] was 0.03 mg/kg.

As for `C[C@H]1c2cccc(O)c2C(=O)C2=C(O)[C@]3(O)C(=O)C(C(N)=O)=C(O)[C@@H](N(C)C)[C@@H]3[C@@H](O)[C@@H]21` [Doxycycline, doxycycline], the ED50 with S. aureus RN450-1 [1] worked out at 8.31 mg/kg. Moreover, the MIC50 against Salmonella spp. and in the assay on E. coli (setting [7]) was 2 µg/mL (≈ 4.5 µM) each time. The MIC90 against Salmonella spp. and in the assay on E. coli (setting [8]) was 32 µg/mL (≈ 72 µM) in each case. Moreover, the entries for the “Mean Percent Inflammation Compared to Untreated Controls” value in [3] (75 mg/kg IP) and in [3] (100 mg/kg IP) were 68% and 36%, respectively. In addition, in the assay with S. pneumoniae PBS 1339, the “S. pneumoniae PBS1339 RTI PD50” value is listed as 7.18 mg/kg. In addition, the “MIC Range” value in the assay with E. coli is listed as 64-64 μg/mL. The same compound yielded an MIC against E. coli (Escherichia coli) of 64 µg/mL (≈ 144 µM). In the assay on S. aureus RN450-1 [4], the “S. aureus RN450-1 IPC PD50” value came out at 0.30 mg/kg.
